Data as given in paper PMC8151276, “An Integrated Approach toward NanoBRET Tracers for Analysis of GPCR Ligand Engagement” (Molecules, 2021).

Biological target: T1, C5AR2 (Homo sapiens, UniProt Q9P296)
T1 construct: purchased Promega (in-house HiBiT-GPCR construct library, NanoBRET)
Assay: NanoBRET screen HiBiT-C5AR2 in HEK293
Type: binding
Method: Each tracer candidate was screened across the entire library of HiBiT-GPCR constructs using NanoBRET as the detection modality. As depicted in Figure 4A, the specificity of interactions was evaluated through decrease in BRET due to competitive displacement of a bound tracer by excess parental compound. Each tracer was analyzed for binding to each HiBiT-GPCR fusion in the absence and in the presence of competing parental compound. Briefly, HEK293 cells were transfected with HiBiT-GPCR constructs diluted into promoterless DNA to reduce expression and maximize translocation to the cell surface. Each tracer candidate was then screened at concentrations of 1 μM and 0.1 μM across cells expressing these fusions. Cells were treated for 1.5 h with tracer either alone or in the presence of 20 μM competing parental compound (i.e., control). BRET was measured upon addition of purified LgBiT and subsequent complementation with HiBiT genetically fused to a GPCR. The specificity of interactions was assessed through a decrease in BRET signal due to competitive displacement of the bound tracer. To further gauge the robustness of these interactions, the fold response over the control (i.e., BRETtracer/BRETcontrol) was calculated. We chose a 1.5-fold response, which translates to ≥7-fold signal over noise as the minimal threshold required to score an interaction as positive. […]. Below we highlight the screening results obtained for our exemplary fluorescent tracers based on Clozapine, Amitriptyline and AZD1283.
HiBiT-GPCR DNA constructs were diluted in 10 mM Tris pH 8 to a final concentration of 0.01 μg/μL, arrayed in 96-well plates and stored at −20 °C. For transfection, HEK293 cells were suspended in Opti-MEM (without phenol red) supplemented with 2% fetal bovine serum (Seradigm) and 100 units/mL penicillin–streptomycin (Gibco) at a final concentration of 220,000 cells/mL and dispensed into white 96-well plates at 90 μL/well. Subsequent transfections and screens were carried using an Agilent Bravo Automated Liquid Handling Platform. First, the 96-well HiBiT DNA arrays were diluted 25-fold in Opti-MEM (without serum or phenol red) to a final concentration of 0.0004 μg/μL and 20 μL of the diluted DNAs were transferred into new 96-well plates. Next, promoterless carrier DNA (1 μg/μL) was diluted 25-fold (0.04 μg/μL) and then dispensed into the diluted arrays at 20 μL/well. Following brief mixing, Viafect transfection reagent (Promega) diluted 16-fold into Opti-MEM was dispensed into the plates at 40 μL/well. After mixing by pipetting, plates were incubated for 10 min on the pipetting station deck. The DNA-transfection reagent complexes were then added to plates containing cells. To facilitate the screen, 10 μL of DNA-transfection reagent complexes were added in duplicates to the top 4 and bottom 4 rows, resulting in two identical 48-well arrays per plate. Plates with transfected cells were incubated for 18–20 h at 37 °C/5% CO2. A screen of each tracer across the entire library using two different concentrations requires duplicate plates of transfected cells. Depending on the number of tracers being screened, transfections can be scaled up using the same ratios. The next day, for each tracer, four 20× screening solutions in tracer dilution buffer (Promega) were prepared: two duplicates at final concentration of 20 μM and two duplicates at a final concentration of 2 μM. A competing unmodified compound was added to one of each duplicate at a final concentration of 400 μM. The four resulting solutions were diluted 4-fold in Opti-MEM without serum or phenol red to generate 5× solutions (5 µM and 0.5 µM tracer +/− 100 μM competing compound). To screen the library, a BioTek MultiFlo FX liquid dispenser was used to dispense 22.5 µL of tracer solution to the top 4 rows and 22.5 µL tracer + competing compound solution to the 4 bottom rows. Plates were briefly mixed on an orbital shaker and incubated for 1.5 h at room temperature. […]

T1 sequence (Q9P296 whole entry): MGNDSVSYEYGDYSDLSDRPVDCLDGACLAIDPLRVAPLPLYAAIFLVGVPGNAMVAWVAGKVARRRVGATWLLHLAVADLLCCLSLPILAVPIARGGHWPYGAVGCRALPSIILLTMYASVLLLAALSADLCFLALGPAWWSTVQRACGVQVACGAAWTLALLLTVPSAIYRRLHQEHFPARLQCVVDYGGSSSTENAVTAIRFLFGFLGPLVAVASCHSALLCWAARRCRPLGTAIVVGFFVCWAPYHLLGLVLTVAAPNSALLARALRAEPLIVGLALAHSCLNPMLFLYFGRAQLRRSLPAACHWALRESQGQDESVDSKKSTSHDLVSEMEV

Row | Structure (SMILES) | NanoBRET Fold Response (C5AR2, tracer 0.1μM) | NanoBRET Fold Response (C5AR2, tracer 1μM) | other results
1 | O=C(CCc1ccc2n1[B-](F)(F)[N+]1=C(c3ccc[nH]3)C=CC1=C2)NCc1ccc(C(=O)NCCOCCC(=O)N[C@@H]2CC[C@@]3(O)[C@H]4Cc5ccc(O)c6c5[C@@]3(CCN4CC3CC3)[C@H]2O6)cc1 [Naltrexone-3-NB590] | 0.95 | 1.01 | 
2 | CCCn1c(=O)c2[nH]c(-c3ccc(OCC(=O)NCCNC(=O)CCOCCNC(=O)c4ccc(CNC(=O)CCc5ccc6n5[B-](F)(F)[N+]5=C(c7ccc[nH]7)C=CC5=C6)cc4)cc3)nc2n(CCC)c1=O [XAC-3-NB590] | 1.02 | 1.01 | 
3 | CC(C)N(CC[C@H](c1ccccc1)c1cc(CCNC(=O)c2ccc(CNC(=O)CCc3ccc4n3[B-](F)(F)[N+]3=C(c5ccc[nH]5)C=CC3=C4)cc2)ccc1O)C(C)C [Tolterodine-BZ-NB590] | 1.05 | 1.08 | 
4 | COc1ccc2[nH]c(-c3ccc(CNC(=O)CCOCCOCCOCCOCCNC(=O)CCc4ccc5n4[B-](F)(F)[N+]4=C(c6ccc[nH]6)C=CC4=C5)cc3)c(CCNC(C)=O)c2n1 [AzomelatoninICO9-2-NB590] |  |  | NanoBRET Fold Response (0.1μM tracer): 1.13; NanoBRET Fold Response (1μM tracer): 0.89
5 | CN1CCN(C2=Nc3cc(Cl)ccc3N(CC(=O)NCCOCCOCCOCCOCCNC(=O)CCc3ccc4n3[B-](F)(F)[N+]3=C(c5ccc[nH]5)C=CC3=C4)c3ccccc32)CC1 [Clozapine-c-2-NB590] |  |  | NanoBRET Fold Response (C5AR2, 0.1μM tracer): 0.99; NanoBRET Fold Response (C5AR2, 1μM tracer): 1.00
6 | COc1ccccc1N1CCN(CCCCN2C(=O)c3ccc(CNC(=O)CCOCCNC(=O)c4ccc(CNC(=O)CCc5ccc6n5[B-](F)(F)[N+]5=C(c7ccc[nH]7)C=CC5=C6)cc4)cc3C2=O)CC1 [NAN-190-3-NB590] | 0.87 | 1.07 | 
7 | Cc1nc2n(c(=O)c1CCN1CCC(c3noc4cc(F)ccc34)CC1)CCCC2OC(=O)NCCOCCOCCOCCOCCNC(=O)CCc1ccc2n1[B-](F)(F)[N+]1=C(c3ccc[nH]3)C=CC1=C2 (centres unmarked) [Risperidone-2-NB590] | 1.06 | 1.07 | 
8 | O=C(CCOCCOCCOCCOCCNC(=O)CCc1ccc2n1[B-](F)(F)[N+]1=C(c3ccc[nH]3)C=CC1=C2)NCCCN1CCN(C2=Nc3ccccc3Oc3ccc(Cl)cc32)CC1 [Loxapine-a-2-NB590] | 0.95 | 1.07 | 
9 | COc1ccccc1N1CCN(CCCCN2C(=O)c3ccc(CNC(=O)CCOCCOCCOCCOCCNC(=O)CCc4ccc5n4[B-](F)(F)[N+]4=C(c6ccc[nH]6)C=CC4=C5)cc3C2=O)CC1 [NAN-190-2-NB590] | 1.02 |  | 
10 | CC(C)N(CC[C@H](c1ccccc1)c1cc(CCNC(=O)CCOCCOCCOCCOCCNC(=O)CCc2ccc3n2[B-](F)(F)[N+]2=C(c4ccc[nH]4)C=CC2=C3)ccc1O)C(C)C [Tolterodine-2-NB590] | 0.98 | 0.92 | 
11 | N#CN=C(NCCCOc1cccc(CN2CCCCC2)c1)NCCNC(=O)CCOCCOCCOCCOCCNC(=O)CCc1ccc2n1[B-](F)(F)[N+]1=C(c3ccc[nH]3)C=CC1=C2 [Aminopotentidine-2-NB590] | 1.06 | 1.03 | 
12 | CCOC(=O)c1cc(C#N)c(N2CCC(C(=O)NS(=O)(=O)Cc3ccccc3/C=C/C(=O)NCCNC(=O)CCc3ccc4n3[B-](F)(F)[N+]3=C(c5ccc[nH]5)C=CC3=C4)CC2)nc1C [AZD1283-1-NB590] |  |  | NanoBRET Fold Response (C5AR2, 0.1μM): 0.97; NanoBRET Fold Response (C5AR2, 1μM): 1.12
13 | CN(C)CCC=C1c2ccccc2CCc2ccc(C(=O)NCCNC(=O)CCOCCOCCOCCOCCNC(=O)CCc3ccc4n3[B-](F)(F)[N+]3=C(c5ccc[nH]5)C=CC3=C4)cc21 [Amitriptyline-a-2-NB590] |  |  | NanoBRET Fold Response (tracer at 0.1μM): 1.11; NanoBRET Fold Response (tracer at 1μM): 1.01
14 | O=C(CCc1ccc2n1[B-](F)(F)[N+]1=C(c3ccc[nH]3)C=CC1=C2)NCCOCCOCCNC(=O)OCCOCCN1CCN(C2=Nc3ccccc3Sc3ccccc32)CC1 [Quetiapine-a-2-NB590] | 1.04 | 0.77 | 
15 | Cc1cc2c(s1)Nc1ccccc1N=C2N1CCN(CCCNC(=O)CCOCCOCCOCCOCCNC(=O)CCc2ccc3n2[B-](F)(F)[N+]2=C(c4ccc[nH]4)C=CC2=C3)CC1 [Olanzapine-a-2-NB590] | 0.95 | 0.97 | 
16 | CN1CCN(C2=Nc3cc(Cl)ccc3Nc3ccc(CNC(=O)CCOCCOCCOCCOCCNC(=O)CCc4ccc5n4[B-](F)(F)[N+]4=C(c6ccc[nH]6)C=CC4=C5)cc32)CC1 [Clozapine-b-2-NB590] |  |  | NanoBRET Fold Response (C5AR2, 0.1μM tracer): 0.99; NanoBRET Fold Response (C5AR2, 1μM tracer): 1.01
17 | COc1ccc2c(n1)c(CCNC(C)=O)cn2CCNC(=O)CCc1ccc2n1[B-](F)(F)[N+]1=C(c3ccc[nH]3)C=CC1=C2 [Azamelatonin-1-NB590] |  |  | NanoBRET Fold Response (0.1μM tracer): 0.90; NanoBRET Fold Response (1μM tracer): 0.93
18 | CN(CCC=C1c2ccccc2CCc2ccccc21)C(=O)CCOCCOCCOCCOCCNC(=O)CCc1ccc2n1[B-](F)(F)[N+]1=C(c3ccc[nH]3)C=CC1=C2 [Amitriptyline-e-2-NB590] |  |  | NanoBRET Fold Response (tracer at 1μM): 1.01
19 | O=C(CCc1ccc2n1[B-](F)(F)[N+]1=C(c3ccc[nH]3)C=CC1=C2)NCc1ccc(C(=O)NCCOCCOCCNCC(O)COc2cccc3ccccc23)cc1 (centres unmarked) [Propranolol-3-NB590] |  |  | NanoBRET Fold Response (C5AR2, 0.1μM): 1.00; NanoBRET Fold Response (C5AR2, 1μM): 1.01
20 | O=C(CCOCCOCCOCCOCCNC(=O)CCc1ccc2n1[B-](F)(F)[N+]1=C(c3ccc[nH]3)C=CC1=C2)NCCCN1CCN(C2=Nc3cc(Cl)ccc3Nc3ccccc32)CC1 [Clozapine-a-2-NB590] |  |  | NanoBRET Fold Response (C5AR2, 0.1μM tracer): 0.93; NanoBRET Fold Response (C5AR2, 1μM tracer): 1.21
